Data: the supplement of paper PMC10307832

What was measured:
Experiment in all cases: relative viability (nuclei count vs DMSO), 5 days (fraction); higher = more cells survive
Alisertib + Phenformin = compound: COc1cc(Nc2ncc3c(n2)-c2ccc(Cl)cc2C(c2c(F)cccc2OC)=NC3)ccc1C(=O)O [Alisertib] + N=C(N)NC(=N)NCCc1ccccc1 [Phenformin] (partner 250 µM)
Summary of the method: (§1)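 Lung cancer cell lines, seeded in 1536-well plates, were treated the following day by pin tool with a single drug or with five library-drug doses (not always all listed) in √10 steps on top of a fixed anchor-drug dose. Cells were fixed and nuclei stained in one step after 5 days, and nuclei were counted. Relative viability is the nuclei count for treated wells divided by that for vehicle wells, reported as medians of duplicate plates.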

Alisertib + OSI-027 = compound: COc1cc(Nc2ncc3c(n2)-c2ccc(Cl)cc2C(c2c(F)cccc2OC)=NC3)ccc1C(=O)O [Alisertib] + COc1cccc2cc(-c3nc([C@H]4CC[C@H](C(=O)O)CC4)n4ncnc(N)c34)[nH]c12 [OSI-027] (partner 0.5 µM)
Summary of the method: as §1

Alisertib + Trametinib = compound: COc1cc(Nc2ncc3c(n2)-c2ccc(Cl)cc2C(c2c(F)cccc2OC)=NC3)ccc1C(=O)O [Alisertib] + CC(=O)Nc1cccc(-n2c(=O)n(C3CC3)c(=O)c3c(Nc4ccc(I)cc4F)n(C)c(=O)c(C)c32)c1 [Trametinib] (partner 0.02 µM)
Summary of the method: as §1

Alisertib + Crizotinib = compound: COc1cc(Nc2ncc3c(n2)-c2ccc(Cl)cc2C(c2c(F)cccc2OC)=NC3)ccc1C(=O)O [Alisertib] + C[C@@H](Oc1cc(-c2cnn(C3CCNCC3)c2)cnc1N)c1c(Cl)ccc(F)c1Cl [Crizotinib] (partner 1 µM)
Summary of the method: as §1

Cell Line | relative viability (Alisertib + Phenformin; first compound 0.005 µM) | relative viability (Alisertib + Phenformin; first compound 0.01581 µM) | relative viability (Alisertib + Phenformin; first compound 0.05 µM) | relative viability (Alisertib + Phenformin; first compound 0.1581 µM) | relative viability (Alisertib + Phenformin; first compound 0.5 µM) | relative viability (Alisertib + OSI-027; first compound 0.005 µM) | relative viability (Alisertib + OSI-027; first compound 0.01581 µM) | relative viability (Alisertib + OSI-027; first compound 0.05 µM) | relative viability (Alisertib + OSI-027; first compound 0.1581 µM) | relative viability (Alisertib + OSI-027; first compound 0.5 µM) | relative viability (Alisertib + Trametinib; first compound 0.005 µM) | relative viability (Alisertib + Trametinib; first compound 0.01581 µM) | relative viability (Alisertib + Trametinib; first compound 0.05 µM) | relative viability (Alisertib + Trametinib; first compound 0.1581 µM) | relative viability (Alisertib + Trametinib; first compound 0.5 µM) | relative viability (Alisertib + Crizotinib; first compound 0.005 µM) | relative viability (Alisertib + Crizotinib; first compound 0.01581 µM) | relative viability (Alisertib + Crizotinib; first compound 0.05 µM) | relative viability (Alisertib + Crizotinib; first compound 0.1581 µM) | relative viability (Alisertib + Crizotinib; first compound 0.5 µM)
NCI-H322M | 0.683 | 0.793 | 0.572 | 0.412 | 0.409 | 0.568 | 0.517 | 0.466 | 0.326 | 0.351 | 0.456 | 0.495 | 0.403 | 0.472 | 0.381 | 0.809 | 0.777 | 0.431 | 0.498 | 0.313
NCI-H358 | 0.259 | 0.262 | 0.118 | 0.0826 | 0.0797 | 0.716 | 0.507 | 0.144 | 0.0797 | 0.0701 | 0.123 | 0.138 | 0.0961 | 0.0877 | 0.0818 | 0.632 | 0.358 | 0.193 | 0.188 | 0.186
NCI-H441 | 0.755 | 0.444 | 0.2 | 0.255 | 0.249 | 0.532 | 0.446 | 0.222 | 0.22 | 0.215 | 0.378 | 0.341 | 0.16 | 0.168 | 0.141 | 0.626 | 0.555 | 0.131 | 0.178 | 0.136
NCI-H460 | 0.474 | 0.343 | 0.0695 | 0.0235 | 0.0304 | 0.618 | 0.578 | 0.218 | 0.0256 | 0.0214 | 0.102 | 0.147 | 0.0441 | 0.0212 | 0.0263 | 0.847 | 0.731 | 0.0614 | 0.0166 | 0.0164
NCI-H520 | 0.552 | 0.395 | 0.275 | 0.318 | 0.2 | 0.253 | 0.221 | 0.204 | 0.18 | 0.182 | 0.499 | 0.429 | 0.35 | 0.232 | 0.213 | 0.589 | 0.38 | 0.286 | 0.296 | 0.243
NCI-H596 | 0.675 | 0.875 | 0.759 | 0.822 | 0.393 | 0.606 | 0.665 | 0.788 | 0.727 | 0.26 | 0.816 | 0.787 | 0.776 | 0.542 | 0.327 |  | 0.882 | 0.882 | 0.719 | 0.504
NCI-H647 | 0.456 | 0.336 | 0.168 | 0.0894 | 0.0773 | 0.662 | 0.487 | 0.227 | 0.116 | 0.102 | 0.358 | 0.493 | 0.228 | 0.159 | 0.113 | 0.91 | 0.625 | 0.241 | 0.193 | 0.109
NCI-H650 | 0.404 | 0.377 | 0.258 | 0.202 | 0.168 | 0.396 | 0.459 | 0.239 | 0.203 | 0.159 | 0.829 | 0.684 | 0.44 | 0.229 | 0.208 | 0.773 | 0.55 | 0.28 | 0.239 | 0.23
NCI-H661 | 0.267 | 0.288 | 0.271 | 0.246 | 0.29 | 0.667 | 0.557 | 0.438 | 0.282 | 0.285 | 0.514 | 0.547 | 0.442 | 0.341 | 0.338 | 1.05 | 1.02 | 0.48 | 0.392 | 0.504
NCI-H727 | 0.514 | 0.504 | 0.262 | 0.276 | 0.352 | 0.573 | 0.466 | 0.421 | 0.482 | 0.374 | 0.308 | 0.392 | 0.355 | 0.341 | 0.353 | 0.691 | 0.675 | 0.361 | 0.315 | 0.267
NCI-H838 | 0.444 | 0.446 | 0.276 | 0.183 | 0.144 | 0.334 | 0.397 | 0.311 | 0.16 | 0.119 | 0.432 | 0.49 | 0.269 | 0.146 | 0.129 | 0.821 | 0.727 | 0.281 | 0.218 | 0.186
NCI-H1355 | 0.4 | 0.353 | 0.23 | 0.182 | 0.189 | 0.346 | 0.367 | 0.356 | 0.154 | 0.173 | 0.39 | 0.411 | 0.355 | 0.187 | 0.153 | 1.08 | 0.906 | 0.737 | 0.215 | 0.186
NCI-H1437 | 0.236 | 0.286 | 0.251 | 0.142 | 0.118 | 0.722 | 0.699 | 0.394 | 0.219 | 0.154 | 0.391 | 0.489 | 0.279 | 0.21 | 0.179 | 0.855 | 0.878 | 0.45 | 0.338 | 0.141
NCI-H1650 | 0.38 | 0.381 | 0.167 | 0.137 | 0.141 | 0.565 | 0.501 | 0.278 | 0.108 | 0.166 | 0.558 | 0.565 | 0.295 | 0.145 | 0.191 | 0.975 | 0.71 | 0.359 | 0.255 | 0.276
NCI-H1651 | 0.218 | 0.222 | 0.147 | 0.101 | 0.175 | 0.621 | 0.609 | 0.417 | 0.288 | 0.203 | 0.799 | 0.654 | 0.52 | 0.258 | 0.154 | 0.898 | 0.807 | 0.41 | 0.204 | 0.256
NCI-H1666 | 0.522 | 0.49 | 0.506 | 0.426 | 0.344 | 0.7 | 0.7 | 0.592 | 0.494 | 0.367 | 0.839 | 0.738 | 0.679 | 0.612 | 0.501 | 0.934 | 0.729 | 0.474 | 0.349 | 0.363
